Reference: patent US20240342204A1, “METHOD OF TREATING VETERINARY VIRAL DISEASES” (Intervet Inc., priority 2021, published 2024)
Where two headings read alike, the source gives them in different places.

How the values were obtained:
[1] = test system: Feline Infectious Peritonitis Virus (FIPV) strain 79-1146; assay: CPE antiviral assay for FIPV in Crandell-Rees Feline Kidney (CrFK) cells; assay type: cell-based
[2] = test system: feline infectious peritonitis (FIP) virus; conditions: tissue culture and experimental cat infection studies; cited from earlier work
[3] = test system: swine influenza virus strain A/swine/MN/A01483170/2014 (H1N1 pdm); assay: microbe, parasite or virus in culture; assay type: cell-based; conditions: H1N1, MDCK, in Sus scrofa, 24 h, read-out: EC50, replication of swine influenza virus reduced by half, H1N1pdm strain
[4] = test system: feline calicivirus (FCV) field strain 255; assay: CrFK cell based antiviral activity against Feline Calicivirus (CPE, CellTiterGlo); conditions: 48 h, read-out: ED50 of NHC against Feline calicivirus
Description: Example 2 CrFK Cell Based Antiviral Activity of NHC Against Feline Calicivirus (FCV)
Monolayers of Crandell-Rees Feline Kidney (CrFK) cells grown in 96-well plates (Greiner Cat #655090) in 100 μl/well M6B8 medium supplemented with 5% FCS and 0.15% NaHCO3 at a density of 2×10^5 cells/ml were infected with feline calicivirus (FCV) field strain 255 at multiplicities of infection of 0.01 and 0.001. NHC was added in ⅓ serial dilutions to the infected cells to yield a test concentration range of from 10 μM to 0.000508 μM and cultures were incubated for up to 48 hours at 37° C. and 5% C02. The extent of viral replication was assessed by determining the degree of FCV-induced cytopathic effect (CPE) using the CellTiterGlo® Luminescent Cell Viability Assay (Promega Cat #G7571) by adding the reagent 1:1 (v/v) to the culture plates that have been equilibrated to room temperature for 30 minutes. Plates were incubated for 10 minutes at room temperature and subsequently read for luminescence in a Biotek Cytation5. The effective concentration of NHC that reduced FCV replication by 50% (EC50) was calculated in a 4-parameter nonlinear regression model using GraphPad Prism 8.

[5] = test system: Porcine rotavirus A strain of serotype G5P7; assay: Anti-porcine rotavirus immunofluorescent assay in MA-104 cells, strain G5P7; assay type: cell-based; conditions: MA104, 72 h, read-out: EC50, replication of porcine rotavirus reduced by half, G5P7 strain
Description: (§1) Example 3 Anti-Porcine Rotavirus Activity of β-D-N(4)-Hydroxycytidine (NHC)
(§2) The anti-rotaviral activity of NHC against swine rotaviruses was tested in a cell culture-based assay. MA-104 (Rhesus monkey kidney tissue) cells were cultured and harvested according to standard procedures. The harvested MA-104 cell suspension was seeded onto 96-well plates (Greiner CELLSTAR® black, Sigma-Aldrich® M0562) in 200 μl/well M6B8 medium with 5% FBS at a density of 3×10^4 cells/mL. After 4 days of culturing, the monolayers were washed and the cells were infected with rotavirus A by adding 100 μl/well of 3630 TCID50/mL Porcine rotavirus A strain of serotype G5P7 (ATCC, VR-892) or strain G9P7 (MAH Worthington, USA). […] Replication inhibition of the Rotavirus A strains by NHC was quantified using a mouse-anti-Rotavirus A strain-specific monoclonal antibody (Ingenasa, #1JF10) followed by FITC-fluorochrome conjugated goat-anti-mouse antibody (Nordic) and DAPI (Sigma Aldrich) nuclear staining in an immunofluorescent assay. The extent of immunofluorescence was quantified as relative fluorescence units (RFU) at 485 nm excitation and 528 nm emission using a Cytation 5 cell imaging multimode reader and Gen5 software version 3.10 (Agilent BioTek). […]

[6] = test system: swine influenza virus strain A/swine/Belgium/113/2013 (H3N2); assay: organism not typed; assay type: cell-based; conditions: MDCK, 24 h, read-out: EC50, replication of swine influenza virus reduced by half, H3N2 strain
[7] = test system: bovine viral diarrhea virus (BVDV); conditions: BVDV virus yield; read-out: EC90, virus yield assays; cited from earlier work
[8] = test system: Porcine rotavirus A strain G9P7; assay: Anti-porcine rotavirus immunofluorescent assay in MA-104 cells, strain G9P7; assay type: cell-based; conditions: MA104, 72 h, 3 days, immunofluorescence (FIG. 3b), read-out: EC50, replication of porcine rotavirus reduced by half, G9P7 strain
Description: as §1, §2

[9] = test system: cytopathic bovine viral diarrhea virus (BVDV) RNA; conditions: dose-dependent inhibition of BVDV RNA production; read-out: 90% effective concentration (EC90), production of cytopathic BVDV RNA; cited from earlier work
[10] = FIPV strain 79-1146 infected CRFK cells, 96 hrs, CPE by CellTiterGlo, read-out: EC 50

CC(C)C[C@H](NC(=O)OCc1ccccc1)C(=O)N[C@@H](CC1CCNC1=O)C(O)S(=O)(=O)O (stereo partly shown) [GC-376]
EC50 [1, 10]: 1.82 to 3 µM

N#C[C@@]1(c2ccc3c(N)ncnn23)O[C@H](CO)[C@@H](O)[C@H]1O [GS-441524]
Inhibition of FIP virus (in words) [2]: strongly inhibit

C[C@@]1(O)[C@H](O)[C@@H](CO)O[C@H]1n1ccc2c(N)ncnc21 [MK-0608]
EC50 [1, 10]: > 30 µM

O=c1nc(NO)ccn1[C@@H]1O[C@H](CO)[C@@H](O)[C@H]1O [NHC, 1-((2R,3R,4S,5R)-3,4-dihydroxy-5-(hydroxymethyl)tetrahydrofuran-2-yl)-4-(hydroxyamino)pyrimidin-2(1H)-one]
EC50 [3]: 5.2 µM
EC50 [4]: 3.8 µM
EC50 [5]: 2.6 µM
EC50 [6]: 1.3 µM
EC90 [7]: 2 µM
EC50 [8]: 1.9 µM
EC90 [9]: 5.4 µM
EC50 ([1]; Alphacoronavirus 1, FIPV strain 79-1146 infected CRFK cells, 96 hrs, CPE by CellTiterGlo, read-out: EC 50): 0.334 to 0.37 µM
Antiviral dose response against FIPV infected feline kidney cells (in words) ([1]; FIG. 1, viral induced CPE): protective against viral induced CytoPathic Effect (CPE) in a dose dependent manner

CCC(CC)COC(=O)[C@H](C)N[P@](=O)(OC[C@H]1O[C@@](C#N)(c2ccc3c(N)ncnn23)[C@H](O)[C@@H]1O)Oc1ccccc1 [Remdesivir]
EC50 ([1]; Alphacoronavirus 1, CRFK, 96 h): 0.735 to 0.97 µM
